These results are taken from US20260226048A1, “MULTI-CYCLIC IRAK AND FLT3 INHIBITING COMPOUNDS AND USES THEREOF” (CHILDREN'S HOSPITAL MEDICAL CENTER, priority 2023, published 2026).

In one assay the target is T1, FLT3 (Homo sapiens, UniProt P36888).
T1 sequence (P36888 27-993): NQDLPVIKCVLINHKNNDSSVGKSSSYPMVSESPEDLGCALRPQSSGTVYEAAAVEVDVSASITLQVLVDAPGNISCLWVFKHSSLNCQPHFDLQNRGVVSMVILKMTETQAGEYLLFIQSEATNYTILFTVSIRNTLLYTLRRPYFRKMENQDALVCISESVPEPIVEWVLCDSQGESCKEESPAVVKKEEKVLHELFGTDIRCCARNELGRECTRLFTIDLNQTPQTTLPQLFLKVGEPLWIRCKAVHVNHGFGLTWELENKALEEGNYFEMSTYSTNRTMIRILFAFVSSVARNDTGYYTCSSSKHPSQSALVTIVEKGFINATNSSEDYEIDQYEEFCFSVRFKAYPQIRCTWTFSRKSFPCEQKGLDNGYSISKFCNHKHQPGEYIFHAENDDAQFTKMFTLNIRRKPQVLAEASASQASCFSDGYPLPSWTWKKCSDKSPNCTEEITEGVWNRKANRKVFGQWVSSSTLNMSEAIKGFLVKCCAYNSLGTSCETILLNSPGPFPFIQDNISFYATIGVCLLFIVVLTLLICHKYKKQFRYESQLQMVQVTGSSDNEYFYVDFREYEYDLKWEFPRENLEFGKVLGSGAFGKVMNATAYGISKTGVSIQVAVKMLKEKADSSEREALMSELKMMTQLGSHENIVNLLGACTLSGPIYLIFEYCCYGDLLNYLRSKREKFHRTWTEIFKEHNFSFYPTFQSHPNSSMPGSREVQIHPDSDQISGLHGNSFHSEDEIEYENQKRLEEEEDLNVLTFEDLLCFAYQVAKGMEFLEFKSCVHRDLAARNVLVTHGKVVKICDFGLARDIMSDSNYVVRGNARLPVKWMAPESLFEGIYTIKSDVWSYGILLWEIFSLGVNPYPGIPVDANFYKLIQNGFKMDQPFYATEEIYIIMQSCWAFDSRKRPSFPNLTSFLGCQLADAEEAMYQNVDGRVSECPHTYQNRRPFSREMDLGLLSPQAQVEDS
Nature of the assay: DiscoverX KINOMEscan competition binding assay, FLT3. Set-up: purchased Reaction Biology (RBC HotSpot). The following applies: 11-point 3-fold dilution. The source says:
(§1) […]. […] As a result, the data report thermodynamic interaction affinities (Kd values), rather than IC50 values that are dependent on ATP concentrations. The assay uses a DNA-tagged version of the protein kinase, and an immobilized ligand bound to a solid support. Compounds that directly or indirectly prevent kinase binding to the immobilized ligand reduce the amount of kinase captured on the solid support, which is detected using an ultra-sensitive qPCR method. Affinity constants reported from the assay have been reported to be independent of the immobilized ligand used that is coupled to the solid support (See supplemental information in Fabian, M. A. et. al., (2005) Nat. Biotechnol. 23, 329-336; Wodicka, L. M. et. al., (2010) Chem. Biol. 17, 1241-1249.)
(§2) Kinase-tagged T7 phage strains were prepared in an E. coli host derived from the BL21 strain. E. coli were grown to log-phase and infected with T7 phage and incubated with shaking at 32° C. until lysis. The lysates were centrifuged and filtered to remove cell debris. The remaining kinases were produced in HEK-293 cells and subsequently tagged with DNA for qPCR detection. Streptavidin-coated magnetic beads were treated with biotinylated small molecule ligands for 30 minutes at room temperature to generate affinity resins for kinase assays. The liganded beads were blocked with excess biotin and washed with blocking buffer (SeaBlock (Pierce), 1% BSA, 0.05% Tween 20, 1 mM DTT) to remove unbound ligand and to reduce non-specific binding. […] Test compounds were prepared as 111× stocks in 100% DMSO. Kds were determined using an 11-point 3-fold compound dilution series with three DMSO control points. All compounds for Kd measurements are distributed by acoustic transfer (non-contact dispensing) in 100% DMSO. The compounds were then diluted directly into the assays such that the final concentration of DMSO was 0.9%. All reactions were performed in polypropylene 384-well plates. Each was a final volume of 0.02 mL. […] The kinase concentration in the eluates was measured by qPCR.
(§3) Binding constants (Kds) were calculated with a standard dose-response curve using the Hill equation. The Hill Slope was set to −1. Curves were fitted using a non-linear least square fit with the Levenberg-Marquardt algorithm.

Another assay has as its target T2, FLT3 D835Y (Homo sapiens, UniProt P36888, D835Y).
T2 construct: purchased DiscoverX (KINOMEscan); host or cells: E. coli BL21-derived host (T7 phage) or HEK-293
T2 sequence (P36888 27-993 D835Y): T1 sequence (P36888 27-993) with D809Y
Nature of the assay: DiscoverX KINOMEscan competition binding assay, FLT3 D835Y. The following applies: 11-point 3-fold dilution.
Excerpt: as §1, §2, §3

Substitutions are numbered along the chain they refer to.

Regarding `COc1cc2ncc(-c3nc(N[C@H]4CNCC[C@@H]4F)ncc3F)n2nc1C1CC1` [Compound 1a, 4-(6-cyclopropyl-7-methoxyimidazo[1,2-b]pyridazin-3-yl)-5-fluoro-N-((3S,4S)-4-fluoropiperidin-3-yl)pyrimidin-2-amine], the Kd at FLT3 is less than 0.17 nM; on FLT3 D835Y, 0.23 nM.
The matching figures for `FC(F)COc1cc2ncc(-c3ccnc(N[C@H]4CNCC[C@@H]4F)n3)n2nc1C1CC1` [Compound 4a, 4-(6-cyclopropyl-7-(2,2-difluoroethoxy)imidazo[1,2-b]pyridazin-3-yl)-N-((3 S,4S)-4-fluoropiperidin-3-yl)pyrimidin-2-amine]: less than 0.17 nM and 0.42 nM.
The matching figures for `COc1cc2ncc(-c3nc(N[C@H]4CNCC[C@@H]4F)ncc3F)n2nc1C(C)(C)O` [Compound 45a, 2-(3-(5-fluoro-2-(((3S,4S)-4-fluoropiperidin-3-yl)amino)pyrimidin-4-yl)-7-methoxyimidazo[1,2-b]pyridazin-6-yl)propan-2-ol]: 1.1 nM and 0.2 nM.
On to `CC(C)(O)c1ccc2ncc(-c3nc(N[C@H]4CNCC[C@@H]4F)ncc3F)n2c1` [Compound 46a, 2-(3-(5-fluoro-2-(((3S,4S)-4-fluoropiperidin-3-yl)amino)pyrimidin-4-yl)imidazo[1,2-a]pyridin-6-yl)propan-2-ol], for which the Kd at FLT3 is 1.2 nM; at FLT3 D835Y, 0.26 nM.
The corresponding values for `COc1cc2ncc(-c3nc(N[C@H]4CNCC[C@@H]4F)ncc3F)n2nc1C1COC1` [Compound 92a, 5-fluoro-N-((3S,4S)-4-fluoropiperidin-3-yl)-4-(7-methoxy-6-(oxetan-3-yl)imidazo[1,2-b]pyridazin-3-yl)pyrimidin-2-amine] are less than 0.17 nM and less than 0.17 nM.
The matching figures for `CC(C)(O)c1cn2c(-c3nc(N[C@H]4CNCC[C@@H]4F)ncc3F)cnc2cn1` [Compound 100a, 2-(3-(5-fluoro-2-(((3S,4S)-4-fluoropiperidin-3-yl)amino)pyrimidin-4-yl)imidazo[1,2-a]pyrazin-6-yl)propan-2-ol]: 16 nM and 2.4 nM.
Consider `COc1cc2ncc(-c3nc(N[C@H]4CNCC[C@@H]4F)ncc3F)n2nc1N1CCCS1(=O)=O` [Compound 112a, 2-(3-(5-fluoro-2-(((3S,4S)-4-fluoropiperidin-3-yl)amino)pyrimidin-4-yl)-7-methoxyimidazo[1,2-b]pyridazin-6-yl)isothiazolidine 1,1-dioxide], for which the Kd on FLT3 and on FLT3 D835Y was less than 0.17 nM in each case.
